Measured values taken from publication PMC7940618, “Specific inhibition of the Survivin–CRM1 interaction by peptide-modified molecular tweezers” (Nature Communications, 2021).

Legend:
[1] = biological target: T1, Survivin120 (Homo sapiens, UniProt O15392); test: Reverse ITC titration (tweezer into Survivin120); assay type: binding; conditions: tweezer added to constant Survivin
T1 construct: the only published NMR structure originated from a truncated Survivin (aa 1-120) with improved solubility; GST with PreScission site (N); made in house; host or cells: Escherichia coli soluBL21
Method: ITC was performed with a MicroCal iTC200 from Malvern Panalytical in PBS, pH 7.4 at 25 °C with molecular tweezers in the cell and Survivin120 in the titration syringe. The protein was dialyzed overnight at 4 °C against the PBS buffer. Ligands were dissolved in the respective dialysis buffer. Then, 300 µM TW were titrated with 300 µM Survivin120 WT or 321 µM Survivin120 K90/103T. Then, 100 µM TW-ELTL, TW-ELTLGEFL, or TW-LFEEGLLT was titrated with 1.2 mM Survivin120 WT or 2.5 mM Survivin120 K90/103T. For reverse titrations, either 33.3 or 34.4 µM Survivin120 in the cell was titrated with 5 mM TW or TW-ELTL in the syringe, respectively. All titrations were performed in PBS, pH 7.4 at 25 °C. Then, 1.5 μL injections were used with 120 s spacing time between injections. The injection rate was set to 0.5 µL/s and the reference power was 5 µcal/s. ITC thermograms were fitted to a one set of sites model with the software Origin (v7.0552) provided with the instrument. Heat of dilution was subtracted as constant from each data point.
Supplementary Figure SI8: Reverse ITC titrations. Titration of 33.3 μM (a) and 34,4 µM (b) Survivin120 in the cell with 5 mM unmodified tweezer TW (a) and TW-ELTL (b) in the syringe.
All titrations (n = 1) were performed in PBS, pH 7.4 at 25 °C. Top row: raw heating power over time subtracted by control heating power of Survivin120 titration into PBS. […]

[2] = parameters: method as in PMID 23750919; conditions: read-out: KD, affinity toward lysine; cited from earlier work

T1 sequence (O15392 1-120): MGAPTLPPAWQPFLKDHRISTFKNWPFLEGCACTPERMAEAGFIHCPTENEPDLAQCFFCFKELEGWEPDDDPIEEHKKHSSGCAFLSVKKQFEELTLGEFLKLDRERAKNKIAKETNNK

| Compound | tweezer molecules accommodated on the protein surface (kink at fold tweezer excess) [1] | Kd [2] |
| --- | --- | --- |
| O=P(O)(O)Oc1c2c(c(OP(=O)(O)O)c3c1C1CC3c3cc4c(cc31)C1CC4c3ccccc31)C1CC2c2cc3c(cc21)C1CC3c2ccccc21 [TW, reference compound] | 4–5 | 17 µM |
| CC(C)C[C@H](NC(=O)[C@@H](NC(=O)[C@H](CC(C)C)NC(=O)[C@H](CCC(=O)O)NC(=O)Cn1cc(CCOP(=O)(O)Oc2c3c(c(OP(=O)(O)O)c4c2[C@H]2C[C@@H]4c4cc5c(cc42)[C@H]2C[C@@H]5c4ccccc42)[C@H]2C[C@@H]3c3cc4c(cc32)[C@H]2C[C@@H]4c3ccccc32)nn1)[C@@H](C)O)C(=O)O [TW-ELTL] | 4–5 |  |
